Test system: dendritic cells
Details: FCCP incorporated in PLGA-G4 or PLGA-G4-cyclodextrin nanoparticles; FIG. 8
Protocol: The prepared nanoparticles were tested for their ability to disrupt endosomes. Particles co-encapsulating the OVA peptide or GFP associated with the dendrimer were incubated at a concentration of 50 μg/ml with 1E5 BMDCs for 24 hours. Liposomal disruption was assessed both qualitatively via fluorescence microscopy of GFP in the cytosol or quantitatively by amount of OVA antigen presented via MHC Class I. Antigen presentation on Class I MHC takes place via cytosolic transport and OVA peptide/MHC Class I was detected specifically using the antibody 24D16-PE.

N#CC(C#N)=NNc1ccc(OC(F)(F)F)cc1 [FCCP, carbonyl cyanide 4-(trifluoromethoxy) phenylhydrazone]
ability to disrupt endosomes: significantly enhances
